Laboratory results reported in US6046289A, “Propenamide derivatives containing Arg-Gly-Asp polymers obtained therefrom” (priority 1990, dated 2000).

System: human plasma rich in platelet
Assay: Platelet coagulation-inhibitory activity in vitro (aggregometer, ADP or collagen stimulation)
Assay type: cell-based
Description: The platelet coagulation-inhibitory effect of the compounds of the present invention was assayed, in vitro, using human plasma rich in platelet. The experimental method will be described below.
To fresh human blood, there was added 1/9 volume of a 3.8% sodium citrate solution, the resulting mixture was centrifuged (1000 rpm; for 10 minutes) and the upper layer was separated as a plasma rich in platelet. The propenamide derivatives, the polymers thereof, the copolymers thereof or salts thereof obtained through lyophilization were dissolved in physiological saline to give a plurality of solutions having various concentrations ranging from 0 to 1.5 mg/ml. Each of the solutions (25 μl) was added to 200 μl of the plasma, incubated at 37° C. for 3 minutes, then a 50 μM of ADP (adenosine diphosphate) solution or a 200 μg/ml collagen solution was added to determine the extent of coagulation in terms of transmittance determined by an aggregometer.
Rate of Coagulation Inhibition=(1-T/T0)×100%
T0 : Transmittance observed when the propenamide derivatives, the polymers thereof, the copolymers thereof or salts thereof were not added.
T: Transmittance observed when the propenamide derivatives, the polymers thereof, the copolymers thereof or salts thereof were added.

## trimethylammonioethyl methacrylamide [Preparation product 14]
ADP Stimulation
  Platelet Coagulation-Inhibitory Activity IC50 ADP Stimulation: C (more than 80)
Collagen Stimulation
  Platelet Coagulation-Inhibitory Activity IC50 Collagen Stimulation: C (more than 80)
